# Data published in EP0201420A1, “2-(2-Acetamido-2-deoxy-3-O-D-glucopyranosyl)-alkanoyl-aminoacyl-nor leucin glycopeptides or derivatives of these glycopeptides, and immunoadjuvant compositions containing them” (ANVAR Agence Nationale de Valorisation de la Recherche, priority 1985, dated 1986).
# Test system: réponse humorale de la souris swiss femelle à la sérumalbumine bovine
# Assay: Immunoadjuvant activity: humoral antibody response to bovine serum albumin, measured by passive haemagglutination
# Format: in vivo
# Conditions: 100 µg per mouse s.c. with 0,5 mg bovine serum albumin in aqueous solution; primary response day 28, secondary response day 36
# Method: L'activité immunoadjuvante a été étudiée en mettant en jeu la réponse humorale de la souris swiss femelle à la sérumalbumine bovine.
# Des groupes de huit souris âgées de 2 mois reçoivent par voie sous-cutanée 0,5 mg de sérumalbumine bovine avec ou sans les substances à tester, à raison de 100 µg par souris. Les administrations sont faites en solution aqueuse.
# Au jour 28, on effectue des prélèvements du sérum sanguin sur les souris traitées et la réponse primaire en anticorps est déterminée par hémagglutination passive en utilisant des hématies de moutons traitées à la formaline et recouvertes de l'antigène étudié selon la méthode décrite par A. A. HIRATA et M.V. BRANDISSE (5. immunol.100, 541 - 648, 1968). Au jour 30 les souris reçoivent une injection de rappel avec les antigènes seuls (100 µg par souris) et au jour 36 on mesure la réponse secondaire induite par la même technique de mesure .
# Les résultats de ces essais figurent dans le tableau 1 qui suit. Ce tableau contient également les résultats mesurés dans les mêmes conditions chez les animaux témoins et chez des animaux qui ont été traités de la même manière avec le MDP à titre de substance de comparaison.
row,SMILES,activité immunoadjuvante
1,CCCC[C@@H](NC(=O)[C@H](C)NC(=O)[C@@H](C)O[C@H]1[C@H](O)[C@@H](CO)OC(O)[C@@H]1NC(C)=O)C(N)=O (stereo partly drawn) [compound 1],n'a pas témoigné d'une activité spécifique
2,CCCCOC(=O)[C@@H](CCCC)NC(=O)[C@H](C)NC(=O)[C@@H](C)O[C@H]1[C@H](O)[C@@H](CO)OC(O)[C@@H]1NC(C)=O (stereo partly drawn) [compound 2],une activité qui se rapproche sensiblement
3,CCCCOC(=O)[C@@H](CCCC)NC(=O)[C@H](C)NC(=O)CO[C@H]1[C@H](O)[C@@H](CO)OC(O)[C@@H]1NC(C)=O (stereo partly drawn) [compound 5],une activité qui se rapproche sensiblement
4,CCCC[C@@H](NC(=O)[C@H](C)NC(=O)[C@@H](C)O[C@H]1[C@H](O)[C@@H](CO)OC(O)[C@@H]1NC(C)=O)C(=O)OC (stereo partly drawn) [compound 6],une activité qui se rapproche sensiblement

# Test system: globules rouges de mouton
# Assay: Immunosuppression test: high dose given before sheep red blood cells, haemolytic plaques of splenocytes counted (Cunningham method)
# Format: in vivo, souris
# Conditions: 1 mg per mouse 2 days before 10^8 sheep red blood cells; splenocytes taken 4 days after; experiment repeated 3 times
# Method: Dans l'expérience qui figure au tableau Ibis et qui a été répétéa 3 fois, le MDP et les autres substances ont été injectés à des souris à une dose 10 ou 20 fois plus élevée que d'habitude (1 mg) 2 jours avant l'injection de 10^8 globules rouges de mouton. Les splénocytes ont été pélevés et mis en culture 4 jours après l'injection de globules rouges de mouton et le nombre de plages hémolytiques dosées selon la méthode de Cunningham.
row,SMILES,inhibition de la production d'anticorps (nombre de plages hémolytiques)
1,"CC(=O)N[C@H]1C(O)O[C@H](CO)[C@@H](O)[C@@H]1O[C@H](C)C(=O)N[C@@H](C)C(=O)N[C@H](CCC(=O)O)C(N)=O (stereo partly drawn) [MDP, N-acétyl-muramyl-L-alanyl-D-isoglutamine]",inhibe totalement la production d'anticorps
2,CCCCOC(=O)[C@@H](CCC(N)=O)NC(=O)[C@H](C)NC(=O)[C@@H](C)O[C@H]1[C@H](O)[C@@H](CO)OC(O)[C@@H]1NC(C)=O (stereo partly drawn) [murabutide],inhibe totalement la production d'anticorps
